Source: paper PMC6827146, “Short-Term Low Temperature Induces Nitro-Oxidative Stress that Deregulates the NADP-Malic Enzyme Function by Tyrosine Nitration in Arabidopsis thaliana” (Antioxidants, 2019)

Target: T1, cytosolic NADP-ME2 (recombinant Arabidopsis NADP-malic enzyme 2) (Arabidopsis thaliana, UniProt Q9LYG3)
T1 construct: full-length cDNA (1785 bp PCR product) in pALEXb; E. coli
T1 sequence (Q9LYG3 1-588): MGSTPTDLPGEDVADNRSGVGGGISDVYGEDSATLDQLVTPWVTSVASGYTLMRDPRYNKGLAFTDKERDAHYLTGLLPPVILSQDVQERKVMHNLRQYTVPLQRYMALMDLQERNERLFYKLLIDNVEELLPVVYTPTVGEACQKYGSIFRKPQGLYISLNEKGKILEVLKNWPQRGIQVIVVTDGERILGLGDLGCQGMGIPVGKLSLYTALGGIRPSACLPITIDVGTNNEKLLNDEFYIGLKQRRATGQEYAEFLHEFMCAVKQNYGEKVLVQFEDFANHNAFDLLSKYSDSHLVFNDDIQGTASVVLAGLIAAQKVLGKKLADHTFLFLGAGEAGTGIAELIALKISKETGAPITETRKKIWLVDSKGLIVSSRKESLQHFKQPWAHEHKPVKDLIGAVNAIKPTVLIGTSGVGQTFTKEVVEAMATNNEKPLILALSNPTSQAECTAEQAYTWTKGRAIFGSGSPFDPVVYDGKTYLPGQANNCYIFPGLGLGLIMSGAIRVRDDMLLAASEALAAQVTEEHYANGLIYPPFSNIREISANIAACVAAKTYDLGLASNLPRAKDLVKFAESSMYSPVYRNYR
Test: spectrophotometric NADP reduction at […] nm after preincubation with peroxynitrite donor
Format: biochemical
Conditions: covalent (Tyr-73 nitration); peroxynitrite generated in situ from donor SIN-1, so concentration is that of the donor; 37 °C, 1 h preincubation; assay pH 7.6, 25 °C, 2 mM MgCl2, 0.8 mM NADP, 1 mM L-mal

## ONOO^−
  % inhibition with 5 mM SIN-1 (donor): 56%
